Numbered stars: 1 amine (or outer) side, 2 acyl side, 3 side chain; on linkers, the order of the positions; unused ones are H or OH. Bridge positions count the residues as written; N and C are the ends. Square brackets hold non-standard residues; d marks the D form. Peptide text beside a SMILES is read from it. * marks the point of attachment. DOTA = O=C(O)CN1CCN(CC(=O)O)CCN(CC(=O)*)CCN(CC(=O)O)CC1; TATA = O=C(CC[*:1])N1CN(C(=O)CC[*:2])CN(C(=O)CC[*:3])C1; d(hArg) = N=C(N)NCCCC[C@@H](N)C(=O)O; dHyp = O=C(O)[C@H]1C[C@H](O)CN1; dCba = N[C@H](CC1CCC1)C(=O)O; βAla = NCCC(=O)O; Sar = CNCC(=O)O
Molecular target: T1, Human EphA2 (Homo sapiens, UniProt P29317)
T1 construct: Human EphA2 (residues 27-529) was cloned into pEXPR-IBA44; made in house; host or cells: HEK293 f/s cells
T1 sequence (P29317 27-529): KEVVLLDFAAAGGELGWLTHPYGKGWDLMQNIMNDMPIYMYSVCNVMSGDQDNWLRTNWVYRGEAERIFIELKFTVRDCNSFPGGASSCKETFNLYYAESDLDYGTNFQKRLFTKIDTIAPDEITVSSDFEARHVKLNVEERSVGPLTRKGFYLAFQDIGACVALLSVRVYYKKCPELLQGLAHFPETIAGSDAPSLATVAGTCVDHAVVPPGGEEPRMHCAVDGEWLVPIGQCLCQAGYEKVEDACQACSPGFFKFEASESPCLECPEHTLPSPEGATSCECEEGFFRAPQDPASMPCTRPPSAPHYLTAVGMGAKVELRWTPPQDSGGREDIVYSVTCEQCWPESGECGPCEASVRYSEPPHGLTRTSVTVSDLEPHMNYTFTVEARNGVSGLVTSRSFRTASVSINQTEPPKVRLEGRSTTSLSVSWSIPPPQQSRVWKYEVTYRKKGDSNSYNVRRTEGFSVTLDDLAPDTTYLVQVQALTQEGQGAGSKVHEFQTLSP
Assay: SPR binding to human EphA2
Description: Human EphA2 (residues 27-529) was cloned into pEXPR-IBA44 between the 5' NheI and 3' BsaI sites to make constructs expressing a BM40 signal sequence and C-terminal 6xHIS tag. For the expression and purification of the protein, HEK293 f/s cells at 1 x 10^6/mL in freestyle media (Thermo Fisher) were transfected with 1 µg DNA per million cells by PEI either 2:1 or 3:1 PEI:DNA ratio. On day 2 valproic acid was added to a 2.2 mM concentration. The supernatant was harvested 5 days post transfection and loaded on a 1 ml Ni-NTA agarose resin (Thermo Fisher) (wash buffer: 20 mM HEPES pH 7.6, 0.5 M NaCl, 5 mM imidazole, 0.01% Tween-20 buffer; elution buffer: 20 mM HEPES pH 7.6, 0.5 M NaCl, 300 mM imidazole, 0.01% Tween-20). The protein was concentrated to a volume of 2 mL, loaded onto an S-200 Superdex column (GE Healthcare) and eluted with 20 mM HEPES pH 7.6, 150 mM NaCl, 0.01% Tween-20 at a flow rate of 1 mL/min. Fractions were collected and those containing human EphA2 protein were concentrated for further use.
SPR experiments were performed on a Biacore 8K+ (Cytiva Life Sciences, USA) instrument, with methods matched for both human and mouse EphA2 protein. Protein was captured on to a Cytiva NTA sensor chip (Cytiva Life Sciences), via the expressed His-tag; this was followed by primary amine coupling chemistry to covalently immobilize the protein to the chip at 25°C. Initially the surface was injected with 0.5 mM NiCl2 for 2 minutes, followed by activation of the carboxymethyl dextran surface for 7 minutes using an injection of a 1:1 ratio of 0.4 M 1-ethyl-3-(3-dimethylaminopropyl) carbodiimide hydrochloride (EDC)/0.1 M N-hydroxy succinimide (NHS) at a flow rate of 10 µL/min.
Human EphA2 protein was captured to the Ni-NTA surface to a level of 200-300 RU and Mouse EphA2 to 500-800 RU; the residual activated groups were then blocked with a 7 minute injection of 1 M ethanolamine (pH 8.5):HBS-N (1:1). Finally, the Ni-NTA surface was chelated with a 1-minute injection of 350 mM EDTA.
Peptide was prepared in PBS/0.05% Tween 20 with a final DMSO concentration of 0.5%. The top peptide concentration was 100 or 500 nM and 5 further 3-fold dilutions. The peptide was titrated over the chip using single cycle kinetics at 25°C at a flow rate of 75 µL/min with 60 second association and 4000 second dissociation. All data were double referenced for blank injections and reference surface using standard processing procedures. Data was characterized with a 1:1 kinetic binding model to determine kinetic rate constants ka (M^-1s^-1) and kd (s^-1) and equilibrium dissociation constant KD (nM). All data processing was performed using Cytiva Insight Evaluation (Cytiva Life Sciences, USA).

Kd (human EphA2, read-out: no binding up to (peptide concentration)): > 5 µM
binding to human EphA2 by SPR (in words): no binding
Structure (SMILES): CC(C)C[C@H]1NC(=O)[C@H]2CCCN2C(=O)[C@@H](CC(N)=O)NC(=O)[C@@H](C(C)C)NC(=O)[C@@H](CC2CCC2)NC(=O)[C@H]2C[C@H](O)CN2C(=O)[C@H](NC(=O)[C@@H](CC(=O)O)NC(=O)[C@@H](CCCCNC(=N)N)NC(=O)[C@@H](C)NC(=O)CN(C)C(=O)CN(C)C(=O)CN(C)C(=O)CN(C)C(=O)CN(C)C(=O)CN(C)C(=O)CN(C)C(=O)CN(C)C(=O)CN(C)C(=O)CN(C)C(=O)CCNC(=O)CN2CCN(CC(=O)O)CCN(CC(=O)O)CCN(CC(=O)O)CC2)CSCCC(=O)N2CN3CN(C2)C(=O)CCSC[C@@H](NC1=O)C(=O)N[C@H](CC(C)C)C(=O)N[C@H](Cc1c[nH]cn1)C(=O)N1CCC[C@@H]1C(=O)N[C@@H](CC(=O)O)C(=O)N[C@H](Cc1c[nH]c2ccccc12)C(=O)N[C@H](CCCCNC(=N)N)C(=O)N[C@@H](C(N)=O)CSCCC3=O [BCY26443, [DOTA]-[B-Ala]-[Sar10]-[dAla]-[dHArg]-[dAsp]-[dCys]-[dHyP]-[dCba]-[dVal]-[dAsn]-[dPro]-[dLeu]-[dCys]-[dLeu]-[dHis]-[dPro]-Asp-[dTrp]-[dHArg]-[dCys]-CONH2] ({DOTA-βAla}-[Sar][Sar][Sar][Sar][Sar][Sar][Sar][Sar][Sar][Sar][dA][d(hArg)][dD][dC][dHyp][dCba][dV][dN][dP][dL][dC][dL][dH][dP]D[dW][d(hArg)][dC]-NH2; linker 14-21-28 via TATA)

— paper PMC11373624, “Development and preclinical characterization of a novel radiotheranostic EphA2-targeting bicyclic peptide” (Theranostics, 2024)
